# From paper PMC11219871, “Epigenetic-based differentiation therapy for Acute Myeloid Leukemia” (Nature Communications, 2024)
# Like-named read-outs stand apart in the source and are kept apart here.
# Tests used:
# HDAC1 = HDAC1 (Homo sapiens, UniProt Q13547); test: HDAC enzymatic assay, fluorescence-labeled substrate; format: biochemical; conditions: for inhibition at 10 µM: source data of Fig. 1B
# [1] = tested on: H3Ac and H3K27me3 levels in HL-60, ML-2, MV4-11 and MOLM-13 cell lines; test: Western blot of histone marks; format: cell-based, human; conditions: HL-60, 270 nM CM-444 or 300 nM CM-1758, 48 h
# Experimental: Histone extraction was performed with a Histone extraction Kit (Abcam, Cambridge, UK) following the manufacturer’s instructions. The histone concentration in the extract was measured using the dye-binding assay of Bradford. A 10 µg amount of histone was separated on 15% sodium dodecyl sulfate-polyacrylamide gel electrophoresis and transferred to a nitrocellulose membrane. The membrane, after being blocked with Tropix I-block blocking reagent (Cat No AI300, Tropix) in PBS with 0.1% Tween 20 and 0.02 NaN3 was incubated with the primary antibody against Acetyl H3 (rabbit polyclonal antibody, Cat No 06-599, Millipore) diluted 1:50,000 o/n at 4 °C or against H3K27 me3 (mouse monoclonal antibody to histone H3 trimethyl K27, Cat No ab6002, Abcam) diluted 1:2000 in bovine serum albumin o/n at 4 °C and then with alkaline phosphatase-conjugated secondary antibodies. […] Total H3 was used as a loading control (diluted 1:50,000 o/n at 4 °C or for 1 h at room temperature) (Anti-Histone H3, CT, pan, rabbit polyclonal, Cat No 07-690, Millipore). Images have been cropped for presentation.
# cytochrome P450 2C9 = target: T1, cytochrome P450 2C9 (Homo sapiens, UniProt P11712); test: CYP inhibition in human liver microsomes; format: in vitro ADME; conditions: 10 µM
# T1 construct: Corning Cat # 452117); tissue Corning 452117; host or cells: human liver microsomes
# T1 sequence (P11712 whole entry): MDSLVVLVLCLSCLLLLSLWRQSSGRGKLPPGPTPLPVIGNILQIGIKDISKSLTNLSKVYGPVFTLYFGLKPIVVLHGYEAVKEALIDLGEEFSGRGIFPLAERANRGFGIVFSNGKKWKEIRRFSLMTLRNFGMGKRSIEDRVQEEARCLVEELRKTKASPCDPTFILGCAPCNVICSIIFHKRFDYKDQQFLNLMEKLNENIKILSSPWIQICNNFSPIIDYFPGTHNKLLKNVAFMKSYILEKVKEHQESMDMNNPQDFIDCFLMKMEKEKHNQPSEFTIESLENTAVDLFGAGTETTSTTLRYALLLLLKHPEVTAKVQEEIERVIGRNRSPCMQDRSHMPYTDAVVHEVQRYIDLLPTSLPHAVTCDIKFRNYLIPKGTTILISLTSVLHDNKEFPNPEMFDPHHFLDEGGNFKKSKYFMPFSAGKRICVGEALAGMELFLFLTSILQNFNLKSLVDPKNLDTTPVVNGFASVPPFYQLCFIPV
# Experimental: (§1) This study was conducted at Wuxi (http://www.wuxi.com/). The inhibitory effects of CM-444 and CM-1758 on five human cytochrome P450s (1A2, 2C9, 2C19, 2D6 and 3A4) were evaluated in human liver microsomes. Test compounds (10 µM final concentration) or control compounds (α-naphthoflavone, sulfaphenazole, (+)-N-3-benzylnirvanol, quinidine, ketoconazole; 3-µM final concentration), and the corresponding substrates for each P450 isoform (1A2: phenacetin, 10-µM final concentration; 2C9: diclofenac, 5-µM final concentration; 2C19: S-mephenytoin, 30-µM final concentration, 2D6: dextromethorphan, 5-µM final concentration; 3A4: midazolam, 2-µM final concentration) were incubated with human liver microsomes (0.2-mg/mL final concentration; Corning Cat # 452117) and NADPH cofactor (1-mM final concentration, Chem-impex Cat # 00616) for 10 min at 37 °C. The reaction was terminated by adding 400 µL of cold stop solution (200 ng/mL tolbutamide and labetalol in acetonitrile), and the samples were centrifuged at 1520 g for 20 min. Next, 200-μL aliquots of supernatants were diluted with 100 μL of ultra-pure water and shaken for 10 min. The samples were analyzed by LC-MS/MS using an analyte/internal standard peak area ratio. Test compounds and positive controls were tested in duplicate. The percentage of inhibition was calculated as the ratio of substrate metabolite detected in treated and non-treated wells.
# cytochrome P450 3A4 = target: T2, cytochrome P450 3A4 (Homo sapiens, UniProt P08684); test: CYP inhibition in human liver microsomes; format: in vitro ADME; conditions: 10 µM
# T2 construct: Corning Cat # 452117); tissue Corning 452117; host or cells: human liver microsomes
# T2 sequence (P08684 whole entry): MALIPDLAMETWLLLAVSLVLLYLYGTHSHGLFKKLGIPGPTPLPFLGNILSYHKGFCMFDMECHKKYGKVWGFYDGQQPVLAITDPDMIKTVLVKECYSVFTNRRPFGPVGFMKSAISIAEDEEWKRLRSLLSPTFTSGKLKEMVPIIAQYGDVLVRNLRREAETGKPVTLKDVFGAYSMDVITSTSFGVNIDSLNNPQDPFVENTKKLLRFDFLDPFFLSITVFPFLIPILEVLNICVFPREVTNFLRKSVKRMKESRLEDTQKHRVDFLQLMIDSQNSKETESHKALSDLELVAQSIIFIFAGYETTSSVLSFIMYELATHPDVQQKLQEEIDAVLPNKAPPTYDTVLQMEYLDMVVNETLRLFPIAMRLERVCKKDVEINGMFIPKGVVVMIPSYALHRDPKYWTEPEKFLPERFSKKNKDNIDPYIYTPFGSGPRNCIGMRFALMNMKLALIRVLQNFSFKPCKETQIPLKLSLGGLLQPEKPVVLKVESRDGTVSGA
# Experimental: as §1
# cytochrome P450 1A2 = target: T3, cytochrome P450 1A2 (Homo sapiens, UniProt P05177); test: CYP inhibition in human liver microsomes; format: in vitro ADME; conditions: 10 µM
# T3 construct: Corning Cat # 452117); tissue Corning 452117; host or cells: human liver microsomes
# T3 sequence (P05177 whole entry): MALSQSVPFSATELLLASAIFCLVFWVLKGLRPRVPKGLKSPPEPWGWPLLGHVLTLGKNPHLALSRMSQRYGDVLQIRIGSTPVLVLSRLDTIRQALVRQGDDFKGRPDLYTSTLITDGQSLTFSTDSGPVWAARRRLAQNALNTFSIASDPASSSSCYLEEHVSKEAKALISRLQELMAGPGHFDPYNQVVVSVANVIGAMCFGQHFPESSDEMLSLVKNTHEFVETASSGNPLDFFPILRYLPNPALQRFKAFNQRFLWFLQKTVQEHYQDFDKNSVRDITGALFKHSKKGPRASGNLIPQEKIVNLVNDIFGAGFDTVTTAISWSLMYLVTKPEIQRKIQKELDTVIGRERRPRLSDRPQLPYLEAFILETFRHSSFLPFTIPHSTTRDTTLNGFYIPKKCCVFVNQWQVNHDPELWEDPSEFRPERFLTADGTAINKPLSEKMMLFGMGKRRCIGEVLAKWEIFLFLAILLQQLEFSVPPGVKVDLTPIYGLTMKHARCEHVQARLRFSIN
# Experimental: as §1
# cytochrome P450 2C19 = target: T4, cytochrome P450 2C19 (Homo sapiens, UniProt P33261); test: CYP inhibition in human liver microsomes; format: in vitro ADME; conditions: 10 µM
# T4 construct: Corning Cat # 452117); tissue Corning 452117; host or cells: human liver microsomes
# T4 sequence (P33261 whole entry): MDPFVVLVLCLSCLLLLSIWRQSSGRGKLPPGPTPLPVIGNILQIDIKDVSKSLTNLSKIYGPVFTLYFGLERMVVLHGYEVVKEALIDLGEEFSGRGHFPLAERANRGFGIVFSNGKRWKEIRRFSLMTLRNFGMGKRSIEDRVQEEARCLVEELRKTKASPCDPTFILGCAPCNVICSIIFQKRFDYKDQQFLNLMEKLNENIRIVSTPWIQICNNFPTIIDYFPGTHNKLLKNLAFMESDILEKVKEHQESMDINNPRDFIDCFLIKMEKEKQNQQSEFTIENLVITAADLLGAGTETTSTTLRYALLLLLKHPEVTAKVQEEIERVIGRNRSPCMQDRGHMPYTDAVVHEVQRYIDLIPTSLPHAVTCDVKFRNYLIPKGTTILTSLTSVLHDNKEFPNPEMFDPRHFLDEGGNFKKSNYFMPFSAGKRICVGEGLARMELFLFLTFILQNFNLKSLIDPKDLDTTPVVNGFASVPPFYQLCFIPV
# Experimental: as §1
# cytochrome P450 2D6 = target: T5, cytochrome P450 2D6 (Homo sapiens, UniProt P10635); test: CYP inhibition in human liver microsomes; format: in vitro ADME; conditions: 10 µM
# T5 construct: Corning Cat # 452117); tissue Corning 452117; host or cells: human liver microsomes
# T5 sequence (P10635 whole entry): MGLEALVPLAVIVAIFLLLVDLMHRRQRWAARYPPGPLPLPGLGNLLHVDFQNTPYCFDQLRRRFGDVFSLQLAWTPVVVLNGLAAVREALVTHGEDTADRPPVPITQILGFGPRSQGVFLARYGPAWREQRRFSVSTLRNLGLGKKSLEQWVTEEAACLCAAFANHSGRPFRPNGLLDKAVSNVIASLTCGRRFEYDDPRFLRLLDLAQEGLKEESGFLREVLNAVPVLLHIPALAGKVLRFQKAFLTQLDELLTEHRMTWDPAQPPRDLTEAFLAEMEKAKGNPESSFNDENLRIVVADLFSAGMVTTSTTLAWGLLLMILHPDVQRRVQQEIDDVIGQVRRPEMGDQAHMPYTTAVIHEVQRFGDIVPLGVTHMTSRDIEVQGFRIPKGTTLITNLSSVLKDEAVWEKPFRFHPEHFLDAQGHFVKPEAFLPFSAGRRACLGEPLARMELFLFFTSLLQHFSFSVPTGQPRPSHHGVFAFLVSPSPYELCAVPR
# Experimental: as §1
# Sequence of HDAC1 (Q13547 whole entry): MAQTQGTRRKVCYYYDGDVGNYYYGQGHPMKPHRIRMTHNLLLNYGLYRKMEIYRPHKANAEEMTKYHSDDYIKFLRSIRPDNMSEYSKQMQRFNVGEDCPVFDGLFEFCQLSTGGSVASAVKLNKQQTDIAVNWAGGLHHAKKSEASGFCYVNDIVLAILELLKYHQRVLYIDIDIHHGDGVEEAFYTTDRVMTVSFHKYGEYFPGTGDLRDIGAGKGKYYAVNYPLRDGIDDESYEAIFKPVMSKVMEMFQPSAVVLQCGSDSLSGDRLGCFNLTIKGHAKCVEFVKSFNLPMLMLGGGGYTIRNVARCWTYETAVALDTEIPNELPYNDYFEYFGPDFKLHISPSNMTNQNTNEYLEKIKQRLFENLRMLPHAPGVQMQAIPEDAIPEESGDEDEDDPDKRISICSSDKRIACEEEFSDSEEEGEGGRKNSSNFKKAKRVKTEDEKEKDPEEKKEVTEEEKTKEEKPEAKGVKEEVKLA
Structure (SMILES),inhibition at 10 µM (HDAC1) [%],IC50 (HDAC1; read-out: HDAC1 IC50) [nM],IC50 (HDAC1; read-out: IC50) [nM],H3Ac level (western blot) [1],H3K27me3 level (western blot) [1],P450S Inhibition (2C9) (cytochrome P450 2C9) [%],P450S Inhibition (3A4) (cytochrome P450 3A4) [%],P450S Inhibition (1A2) (cytochrome P450 1A2) [%],P450S Inhibition (2C19) (cytochrome P450 2C19) [%],P450S Inhibition (2D6) (cytochrome P450 2D6) [%]
"COc1cc2nc(-c3cc(C)oc3C)cc(NCC3CCN(c4ncc(C(=O)NO)cn4)CC3)c2cc1OC [CM-1758, 2-[4-[[[2-(2,5-dimethyl-3-furyl)-6,7-dimethoxy-4-quinolyl]amino]methyl] -1-piperidyl]pyrimidine-5-carbohydroxamic acid]",90,4.32,4.3,significant increase in H3Ac,no changes in H3K27me3,12.2,46.9,55.4,23.7,13.1
"COc1cc2nc(-c3ccc(C)o3)cc(NCC3CCN(c4ncc(C(=O)NO)cn4)CC3)c2cc1OC [CM-444, 2-[4-[[[6,7-dimethoxy-2-(5-methyl-2-furyl)-4-quinolyl]amino]methyl]-1-piperidyl]pyrimidine-5-carbohydroxamic acid]",90,–,6.55,significant increase in H3Ac,no changes in H3K27me3,0,50.8,58.8,5.6,10.8
